Source: ChEMBL document CHEMBL1201862, “PubChem BioAssay data set” (2004)
Activity calls are given as the source filed them.

How the values were obtained:
[1] = target: Acyl-homoserine lactone acylase PvdQ (Pseudomonas aeruginosa (strain LESB58), UniProt Q9I194); experiment: P. aeruginosa PvdQ acylase inhibitors, dose response, biochemical, fluorescence, plate reader and imaging, cherry-picks (AID 493231)
Protein skinhead-1 = target: T1, Protein skinhead-1 (Caenorhabditis elegans, UniProt P34707); format: functional
T1 sequence (P34707 whole entry): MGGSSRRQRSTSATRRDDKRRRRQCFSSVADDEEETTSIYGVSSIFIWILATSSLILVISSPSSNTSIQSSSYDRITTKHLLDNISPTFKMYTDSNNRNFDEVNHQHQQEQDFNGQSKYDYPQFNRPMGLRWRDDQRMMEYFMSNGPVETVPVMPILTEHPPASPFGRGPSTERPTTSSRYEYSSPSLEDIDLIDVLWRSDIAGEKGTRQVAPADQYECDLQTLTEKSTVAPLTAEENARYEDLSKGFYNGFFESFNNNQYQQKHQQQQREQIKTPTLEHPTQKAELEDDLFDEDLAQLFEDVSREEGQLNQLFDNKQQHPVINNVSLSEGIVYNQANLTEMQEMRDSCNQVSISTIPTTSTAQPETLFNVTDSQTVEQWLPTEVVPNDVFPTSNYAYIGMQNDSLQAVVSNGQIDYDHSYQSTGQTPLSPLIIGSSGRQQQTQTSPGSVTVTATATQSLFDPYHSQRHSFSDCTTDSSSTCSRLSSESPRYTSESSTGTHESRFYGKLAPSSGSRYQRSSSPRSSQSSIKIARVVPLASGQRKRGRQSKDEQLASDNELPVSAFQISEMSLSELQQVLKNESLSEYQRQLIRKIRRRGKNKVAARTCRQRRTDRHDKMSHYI

T-cell = experiment: inhibitors of CD8+ T cell–vesicle binding, dose response, mouse 2C CD8+ T cells, flow cytometry (AID 485284); format: functional
[2] = target: NACHT, LRR and PYD domains-containing protein 1 (Homo sapiens, UniProt Q9C000); experiment: NALP1 inhibitors in yeast, dose response, luminescent (AID 488860); format: functional
Saccharomyces cerevisiae = experiment: NALP1 inhibitor project selectivity study, Caspase-1/ASC signal blockade IC50 in S. cerevisiae (AID 488863); format: functional, organism-based
cells [3] = format: functional, cell-based
[4] = target: C-C chemokine receptor type 6 (Homo sapiens, UniProt P51684); experiment: CCR6 receptor antagonists, dose response, cell-based, luminescent beta-arrestin readout (AID 504728); format: functional
Chain of C-C chemokine receptor type 6 (P51684 whole entry): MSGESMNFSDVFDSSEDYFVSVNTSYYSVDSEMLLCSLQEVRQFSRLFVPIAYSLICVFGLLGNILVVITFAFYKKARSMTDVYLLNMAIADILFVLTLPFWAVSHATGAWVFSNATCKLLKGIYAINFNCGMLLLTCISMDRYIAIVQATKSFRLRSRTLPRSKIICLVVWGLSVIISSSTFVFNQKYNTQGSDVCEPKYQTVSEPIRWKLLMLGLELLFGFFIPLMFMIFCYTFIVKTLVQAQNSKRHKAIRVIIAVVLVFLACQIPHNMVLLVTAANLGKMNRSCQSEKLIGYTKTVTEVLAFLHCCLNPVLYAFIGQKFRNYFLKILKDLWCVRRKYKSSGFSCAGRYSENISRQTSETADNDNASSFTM

cells [5] = format: functional, cell-based; remark: listed apart in the source
Beta-galactosidase [6] = target: T2, Beta-galactosidase (Escherichia coli, UniProt Q8VNN2); experiment: beta-galactosidase enzyme inhibitors and activators, dose response, artefact control for CCR6 antagonist project, biochemical, E. coli enzyme, set 3 (AID 504712); format: functional
T2 sequence (Q8VNN2 whole entry): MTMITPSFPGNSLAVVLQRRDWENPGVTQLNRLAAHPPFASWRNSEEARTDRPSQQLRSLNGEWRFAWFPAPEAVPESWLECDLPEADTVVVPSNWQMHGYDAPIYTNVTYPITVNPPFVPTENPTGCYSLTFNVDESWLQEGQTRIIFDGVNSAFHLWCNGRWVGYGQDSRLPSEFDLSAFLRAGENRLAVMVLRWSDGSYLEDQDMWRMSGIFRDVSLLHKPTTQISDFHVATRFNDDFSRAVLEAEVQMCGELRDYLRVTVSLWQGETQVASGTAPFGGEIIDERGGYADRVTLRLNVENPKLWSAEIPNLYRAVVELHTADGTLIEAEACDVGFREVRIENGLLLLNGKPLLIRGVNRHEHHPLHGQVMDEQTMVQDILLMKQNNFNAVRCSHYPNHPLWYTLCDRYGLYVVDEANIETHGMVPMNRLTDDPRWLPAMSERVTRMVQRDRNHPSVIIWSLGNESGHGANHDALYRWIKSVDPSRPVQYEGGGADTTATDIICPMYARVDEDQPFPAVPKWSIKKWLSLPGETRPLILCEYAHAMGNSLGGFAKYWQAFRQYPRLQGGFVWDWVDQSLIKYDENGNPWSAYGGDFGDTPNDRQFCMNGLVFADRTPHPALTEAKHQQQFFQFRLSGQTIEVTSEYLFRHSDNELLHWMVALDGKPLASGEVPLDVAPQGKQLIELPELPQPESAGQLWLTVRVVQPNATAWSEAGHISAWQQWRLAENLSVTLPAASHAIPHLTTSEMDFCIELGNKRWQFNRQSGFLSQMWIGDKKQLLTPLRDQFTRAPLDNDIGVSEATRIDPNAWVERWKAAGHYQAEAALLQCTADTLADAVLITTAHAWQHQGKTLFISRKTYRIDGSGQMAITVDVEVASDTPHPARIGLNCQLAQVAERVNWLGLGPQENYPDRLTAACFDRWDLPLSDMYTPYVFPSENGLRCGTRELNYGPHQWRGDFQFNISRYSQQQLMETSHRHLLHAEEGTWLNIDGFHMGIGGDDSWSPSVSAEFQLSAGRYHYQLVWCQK

Vero [7] = experiment: cells; format: functional; conditions: Chlorocebus sabaeus
[8] = target: T3, Sentrin-specific protease 1 (Homo sapiens, UniProt Q9P0U3); experiment: Dose response confirmation of small molecule inhibitors of the catalytic domain of the SUMO protease, SENP1 in a FRET assay.; format: functional; conditions: read-out: IC50_Mean
T3 sequence (Q9P0U3 whole entry): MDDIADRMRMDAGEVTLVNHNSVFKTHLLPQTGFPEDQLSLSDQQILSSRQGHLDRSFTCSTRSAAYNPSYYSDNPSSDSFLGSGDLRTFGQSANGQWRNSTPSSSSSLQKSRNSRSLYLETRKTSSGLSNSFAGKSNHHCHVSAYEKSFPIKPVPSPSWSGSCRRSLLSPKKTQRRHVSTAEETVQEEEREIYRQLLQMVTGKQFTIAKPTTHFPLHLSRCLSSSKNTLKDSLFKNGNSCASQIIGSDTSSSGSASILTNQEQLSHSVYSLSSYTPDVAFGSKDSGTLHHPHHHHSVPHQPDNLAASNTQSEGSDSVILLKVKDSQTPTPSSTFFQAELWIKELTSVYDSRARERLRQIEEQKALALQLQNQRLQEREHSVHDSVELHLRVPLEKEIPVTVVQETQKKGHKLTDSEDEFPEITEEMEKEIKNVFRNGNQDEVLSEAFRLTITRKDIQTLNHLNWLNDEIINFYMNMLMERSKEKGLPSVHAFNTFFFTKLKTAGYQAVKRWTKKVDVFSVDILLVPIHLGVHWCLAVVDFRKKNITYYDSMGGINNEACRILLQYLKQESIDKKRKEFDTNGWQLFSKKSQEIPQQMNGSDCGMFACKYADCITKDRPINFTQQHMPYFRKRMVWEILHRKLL

[9] = target: T4, Polyadenylate-binding protein 1 (Homo sapiens, UniProt P11940); experiment: PABP1 MLLE–PAM2 interaction inhibitors, dose response, miRNA deadenylation inhibitor project, biochemical, fluorescence polarization, Cy5-PAM2 peptide, secondary (AID 602260); format: functional; conditions: read-out: IC50_Mean
T4 sequence (P11940 whole entry): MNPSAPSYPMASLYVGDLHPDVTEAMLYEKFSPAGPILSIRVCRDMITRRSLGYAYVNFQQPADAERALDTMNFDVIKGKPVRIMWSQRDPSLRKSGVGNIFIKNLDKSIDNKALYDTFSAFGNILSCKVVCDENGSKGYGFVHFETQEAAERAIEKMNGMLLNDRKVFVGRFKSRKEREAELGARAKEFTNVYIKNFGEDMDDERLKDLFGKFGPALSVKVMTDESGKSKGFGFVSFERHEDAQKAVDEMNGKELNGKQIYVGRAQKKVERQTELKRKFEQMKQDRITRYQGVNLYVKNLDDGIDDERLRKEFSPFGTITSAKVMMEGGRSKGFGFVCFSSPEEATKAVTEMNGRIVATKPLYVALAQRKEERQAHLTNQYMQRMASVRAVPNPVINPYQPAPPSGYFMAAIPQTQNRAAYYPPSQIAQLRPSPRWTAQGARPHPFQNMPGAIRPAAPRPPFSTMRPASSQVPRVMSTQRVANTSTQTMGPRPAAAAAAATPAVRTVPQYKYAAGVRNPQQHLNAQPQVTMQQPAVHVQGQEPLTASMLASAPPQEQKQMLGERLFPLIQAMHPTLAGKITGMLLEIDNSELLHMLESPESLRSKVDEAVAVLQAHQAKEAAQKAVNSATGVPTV

Protein Rev = Protein Rev (Human immunodeficiency virus type 1 group M subtype B (isolate HXB2)(HIV-1), UniProt P04618); experiment: inhibitors of Rev binding to RRE RNA, dose response, biochemical, fluorescence polarization, HIV-1 (AID 434976); parameters: species or system Human immunodeficiency virus 1
Chain of Protein Rev (P04618 whole entry): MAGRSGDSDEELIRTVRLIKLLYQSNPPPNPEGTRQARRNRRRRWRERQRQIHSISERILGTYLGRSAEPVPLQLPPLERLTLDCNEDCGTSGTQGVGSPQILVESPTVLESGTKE

[10] = target: Female germline-specific tumor suppressor gld-1 (Caenorhabditis elegans, UniProt Q17339); experiment: inhibitors of GLD-1 binding to TGE RNA, dose response, biochemical, fluorescence polarization, C. elegans (AID 2802);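 also: fluorescence polarization of labeled TGE RNA bound by purified gld-1 protein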
[11] = target: T3, Sentrin-specific protease 1; experiment: potency of human SENP1 inhibitors, dose response, biochemical, kinetic FRET (AID 651697); format: functional; conditions: read-out: IC50_Mean
[12] = target: T4, Polyadenylate-binding protein 1; experiment: PABP1 MLLE–PAM2 binding inhibitor potency, dose response, biochemical, fluorescence polarization, FITC-PAM2 peptide (AID 602259); format: functional; conditions: read-out: IC50_Mean
HeLa = experiment: HeLa cell cytotoxicity, dose response, cytotoxicity control, 24 h, cherry-picked samples (AID 504726); format: functional, cell-based; conditions: Homo sapiens;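 also: potency for cytotoxicity as loss of luminescence signal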
[13] = inhibitors of SNCA 5'UTR-driven reporter translation, confirmation, H4 neuroglioma cells, luminescence (AID 1988); format: functional, cell-based
ORF 73 = ORF 73 (Human herpesvirus 8, UniProt O40947); experiment: inhibitors of C-LANA binding to LBS DNA, dose response, biochemical, fluorescence polarization, cherry-picked samples (AID 504725); parameters: species or system Human gammaherpesvirus 8;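 also: fluorescence polarization of a labeled DNA duplex reporting LANA DNA binding; potency is for inhibitors that block LANA binding to the DNA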
[14] = inhibitors of firefly luciferase expression or activity, dose response, H4 neuroglioma cells, luminescence (AID 1990); format: functional, cell-based
Paired box protein Pax-8 = Paired box protein Pax-8 (Homo sapiens, UniProt Q06710); experiment: inhibitors of PAX8-driven TPO luciferase reporter, dose response, RMG-I cells, cherry-pick (AID 687027); format: functional, cell-based;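 also: luciferase reporter driven by Pax8 target thyroperoxidase promoter measured by SteadyGlo luminescence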
Protein S100-A4 = Protein S100-A4 (Homo sapiens, UniProt P26447); experiment: S100A4-myosin IIA binding inhibitor potency, dose response, biochemical, fluorescence polarization, cherry-picked hits (AID 687001); format: functional
Chain of Protein S100-A4 (P26447 whole entry): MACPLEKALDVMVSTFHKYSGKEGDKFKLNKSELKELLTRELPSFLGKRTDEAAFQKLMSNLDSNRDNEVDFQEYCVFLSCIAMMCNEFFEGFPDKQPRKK

[15] = Luminescence Cell-Based Dose Response HTS to Identify Inhibitors of 5'UTR Stem-Loop Driven Prion Protein mRNA Translation in H4 Neuroglioblastoma Cells. [Related pubchem assays: 1827 (Project Summary), 1813 (Primary HTS)]; format: functional
[16] = target: T5, Kappa-type opioid receptor (Homo sapiens, UniProt P41145); experiment: SAR analysis of Antagonists of the Kappa Opioid Receptor (KOR) using an Image-Based Assay - Set 4. [Related pubchem assays (depositor defined):AID1777, AID1785]; format: functional
T5 sequence (P41145 whole entry): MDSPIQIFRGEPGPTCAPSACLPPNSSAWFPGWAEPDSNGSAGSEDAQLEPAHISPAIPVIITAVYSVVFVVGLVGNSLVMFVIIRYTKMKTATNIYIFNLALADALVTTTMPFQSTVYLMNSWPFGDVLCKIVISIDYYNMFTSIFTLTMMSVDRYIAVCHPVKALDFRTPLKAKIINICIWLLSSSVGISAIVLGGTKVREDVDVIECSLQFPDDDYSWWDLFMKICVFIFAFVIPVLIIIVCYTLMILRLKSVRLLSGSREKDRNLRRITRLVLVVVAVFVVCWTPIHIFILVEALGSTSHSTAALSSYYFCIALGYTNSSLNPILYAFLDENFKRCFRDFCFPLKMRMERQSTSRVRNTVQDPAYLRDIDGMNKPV

[17] = target: T5, Kappa-type opioid receptor; experiment: SAR analysis of small molecule antagonists of the kappa opioid receptor via a luminescent beta-arrestin assay - Set 4. [Related pubchem assays (depositor defined):AID1777, AID1778, AID1785, AID1786, AID1966, AID2133, AID2136, AID2285]; format: functional
Mu-type opioid receptor [18] = target: T6, Mu-type opioid receptor (Homo sapiens, UniProt P35372); experiment: SAR Analysis of Antagonists of the MOR Receptor using an Image-Based Assay - Set 3. [Related pubchem assays (depositor defined):AID1777, AID1785, AID1786, AID1966, AID2133, AID2136, AID2284, AID2285, AID2420]; format: functional
T6 sequence (P35372 whole entry): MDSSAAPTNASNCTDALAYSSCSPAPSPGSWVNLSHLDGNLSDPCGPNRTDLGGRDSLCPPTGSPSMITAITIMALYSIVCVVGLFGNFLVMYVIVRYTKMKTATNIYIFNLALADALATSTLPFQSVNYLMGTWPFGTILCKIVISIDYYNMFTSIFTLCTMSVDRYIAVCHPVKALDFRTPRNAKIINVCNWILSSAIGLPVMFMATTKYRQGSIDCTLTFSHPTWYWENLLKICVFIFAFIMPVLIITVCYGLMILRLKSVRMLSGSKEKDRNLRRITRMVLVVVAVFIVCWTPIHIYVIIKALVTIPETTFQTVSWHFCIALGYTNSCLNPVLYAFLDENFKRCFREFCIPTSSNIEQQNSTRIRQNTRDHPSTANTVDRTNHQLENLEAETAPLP

[19] = target: T5, Kappa-type opioid receptor; experiment: SAR analysis of small molecule antagonists of the kappa opioid receptor via a luminescent beta-arrestin assay - Set 6. [Related pubchem assays (depositor defined):AID1777, AID1778, AID1785, AID1786, AID1966, AID2133, AID2136, AID2285]; format: functional
[20] = target: T7, Delta-type opioid receptor (Homo sapiens, UniProt P41143); experiment: SAR Analysis of Antagonists of the DOR Receptor using an Image-Based Assay - Set 3. [Related pubchem assays (depositor defined):AID1777, AID1785]; format: functional
T7 sequence (P41143 whole entry): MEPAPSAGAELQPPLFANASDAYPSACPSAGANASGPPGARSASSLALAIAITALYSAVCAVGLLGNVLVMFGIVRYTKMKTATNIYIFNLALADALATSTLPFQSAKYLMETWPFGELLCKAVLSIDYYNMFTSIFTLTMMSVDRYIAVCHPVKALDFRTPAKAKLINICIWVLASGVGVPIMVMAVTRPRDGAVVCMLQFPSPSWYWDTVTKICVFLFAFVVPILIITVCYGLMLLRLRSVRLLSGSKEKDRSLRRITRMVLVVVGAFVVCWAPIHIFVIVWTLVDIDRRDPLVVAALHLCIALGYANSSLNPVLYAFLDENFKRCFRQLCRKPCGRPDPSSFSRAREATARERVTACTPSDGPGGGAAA

[21] = target: Eukaryotic translation initiation factor 4H (Homo sapiens, UniProt Q15056); experiment: eIF4H inhibition in translation initiation, SAR follow-up (AID 435011); format: functional
[22] = target: T4, Polyadenylate-binding protein 1; experiment: PABP inhibition in translation initiation, SAR follow-up (AID 435018); format: functional
[23] = target: E3 ubiquitin-protein ligase Mdm2/Protein Mdm4 (Homo sapiens, UniProt O15151+Q00987); experiment: Mdm2-MdmX interaction inhibitors, dose response, luminescence detection (AID 504593); format: functional
Beta-galactosidase [24] = target: T2, Beta-galactosidase; format: functional
Vero [25] = experiment: host cell cytotoxicity of antiviral hits, dose response, cytotoxicity control for West Nile virus antiviral project, secondary assay (AID 1650); format: functional; conditions: Chlorocebus sabaeus
[26] = target: T7, Delta-type opioid receptor; experiment: HTS Image-Based Screen for Antagonists of the DOR Receptor. [Related pubchem assays (depositor defined):AID1777, AID1785, AID1786, AID2133]; format: functional
Mu-type opioid receptor [27] = target: T6, Mu-type opioid receptor; experiment: HTS Image-Based Screen for Agonists of the MOR Receptor. [Related pubchem assays (depositor defined):AID1777, AID1785, AID1786, AID2133]; format: functional
[28] = target: T7, Delta-type opioid receptor; experiment: HTS Image-Based Screen for Agonists of the DOR Receptor. [Related pubchem assays (depositor defined):AID1777, AID1786, AID2133]; format: functional
[29] = target: T5, Kappa-type opioid receptor; format: functional
[30] = target: T5, Kappa-type opioid receptor; format: functional; remark: listed apart in the source
[31] = target: Melanin-concentrating hormone receptor 1 (Homo sapiens, UniProt Q99705); experiment: Late-stage fluorescence-based counterscreen for antagonists of the G-protein coupled receptor 7 (GPR7): cell-based dose response assay to identify antagonists of the melanin-concentrating hormone receptor 1 (MCHR1). [Related pubchem assays (depositor defined):AID1861, AID1880, AID1952, AID2148, AID2251, AID2257, AID485339]; format: functional;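 also: stimulated with 30 nM MCH peptide agonist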
Chain of Melanin-concentrating hormone receptor 1 (Q99705 whole entry): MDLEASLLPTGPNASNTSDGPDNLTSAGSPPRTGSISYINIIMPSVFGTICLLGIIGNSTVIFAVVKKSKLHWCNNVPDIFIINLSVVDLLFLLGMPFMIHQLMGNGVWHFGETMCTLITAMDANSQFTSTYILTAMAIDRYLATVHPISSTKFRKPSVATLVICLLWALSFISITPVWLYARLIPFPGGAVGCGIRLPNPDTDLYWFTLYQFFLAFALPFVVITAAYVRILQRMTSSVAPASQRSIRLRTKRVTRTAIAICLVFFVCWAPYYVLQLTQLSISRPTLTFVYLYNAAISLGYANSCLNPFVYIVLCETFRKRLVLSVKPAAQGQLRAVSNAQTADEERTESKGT

Chain of Acyl-homoserine lactone acylase PvdQ (Q9I194 24-193 limits assumed): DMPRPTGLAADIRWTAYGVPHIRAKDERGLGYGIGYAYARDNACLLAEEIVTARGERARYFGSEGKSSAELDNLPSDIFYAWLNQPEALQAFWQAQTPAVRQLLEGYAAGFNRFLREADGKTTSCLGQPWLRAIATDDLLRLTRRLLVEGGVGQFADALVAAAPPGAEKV
Chain of Acyl-homoserine lactone acylase PvdQ (Q9I194 217-762 limits assumed): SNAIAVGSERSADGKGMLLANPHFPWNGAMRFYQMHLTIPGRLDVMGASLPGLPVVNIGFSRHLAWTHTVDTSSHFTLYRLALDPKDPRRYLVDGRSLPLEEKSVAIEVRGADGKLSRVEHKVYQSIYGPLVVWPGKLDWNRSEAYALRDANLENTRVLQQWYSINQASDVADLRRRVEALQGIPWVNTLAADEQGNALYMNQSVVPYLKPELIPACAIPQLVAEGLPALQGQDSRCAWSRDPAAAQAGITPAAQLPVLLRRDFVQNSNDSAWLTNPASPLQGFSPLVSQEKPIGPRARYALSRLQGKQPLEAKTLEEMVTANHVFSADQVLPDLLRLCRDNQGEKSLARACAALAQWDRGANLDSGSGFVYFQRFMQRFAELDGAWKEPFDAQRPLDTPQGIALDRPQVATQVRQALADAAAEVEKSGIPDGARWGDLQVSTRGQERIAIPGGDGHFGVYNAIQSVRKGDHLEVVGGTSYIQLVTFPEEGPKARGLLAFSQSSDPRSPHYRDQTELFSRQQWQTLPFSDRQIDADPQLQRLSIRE

Clc1ccc(-c2nnc(-c3ccco3)o2)cc1
AC50 [1]: 24.3 µM (active) | IC50 (Protein skinhead-1): 17.2 µM (active)

Cc1ccc(O)c(CCc2ccccc2)n1
EC50 (T-cell): 9.49 µM (active)

COc1ccccc1N1CCN(CCCCCCOc2ccc(F)cc2)CC1
IC50 [2]: 9.66 µM (active) | IC50 (Saccharomyces cerevisiae): 13.2 µM (active)

Cc1cc(C)nc(N/N=C/C2=C(O)CC(c3ccc(F)cc3)CC2=O)n1 (configuration not stated)
EC50 (cells [3]): > 350 µM (not active) | IC50 [4]: > 66.6 µM (inactive) | EC50 (cells [5]): 15.9 µM (active) | IC50 (Beta-galactosidase [6]): > 66.6 µM (inactive) | CC50 (Vero [7]): > 25 µM (active)

O=C1C=C(O)c2cccc3cccc1c23
IC50 [8]: 8.55 µM (active) | IC50 [9]: 33.1 µM (inactive) | IC50 (Protein Rev): 13.9 µM (not active) | IC50 [10]: 6.13 µM (active) | IC50 [11]: 13.1 µM (active) | IC50 [12]: 34.5 µM (inactive)

COc1cccc2c1C(=O)c1c(O)c3c(c(O)c1C2=O)C[C@](O)(C(C)=O)C[C@H]3O[C@@H]1C[C@@H](N)[C@@H](O)[C@@H](C)O1
AC50 (HeLa): 3.2 µM (active) | EC50 [13]: < 0.1 µM (active) | AC50 (ORF 73): 3.01 µM (active) | EC50 [14]: < 0.1 µM (active) | AC50 (Paired box protein Pax-8): 2.84 µM (active) | AC50 (Protein S100-A4): 0.29 µM (active) | EC50 [15]: 0.102 µM (active)

CC(C)N(CCNC(=O)c1ccc(CNS(=O)(=O)c2ccc3ccccc3c2)cc1)Cc1ccccc1
IC50 [16]: 0.16 µM (active) | IC50 [17]: 2.33 µM (active) | IC50 (Mu-type opioid receptor [18]): > 32 µM (inactive) | IC50 [19]: 5.52 µM (active) | IC50 [20]: 31.3 µM (inactive)

CCc1nnc(NC(=O)CSc2ccc(-c3ccco3)nn2)s1
IC50 [21]: 9.04 µM (active) | IC50 [22]: 64.4 µM (active)

O=[N+]([O-])c1ccccc1S(=O)(=O)Nc1cccc2cccnc12
IC50 [23]: 3.73 µM (active) | EC50 (Beta-galactosidase [24]): > 31.5 µM (inactive) | CC50 (Vero [25]): 8.6 µM (active) | IC50 [26]: > 32 µM (inactive) | EC50 [13]: > 120 µM (not active) | EC50 [14]: 14.1 µM (active) | EC50 (Mu-type opioid receptor [27]): > 32 µM (inactive) | EC50 [28]: > 32 µM (inactive) | IC50 [29]: > 32 µM | EC50 [15]: 11.6 µM (active) | IC50 [30]: 7.84 µM (active)

O=C(C1CCCCN1Cc1ccccc1)N1CCN(c2ccc([N+](=O)[O-])cc2)CC1 (configuration not stated)
IC50 [31]: 11.3 µM (inactive)
